Laboratory results reported in PMC10573752, “New Benzamides as Multi-Targeted Compounds: A Study on Synthesis, AChE and BACE1 Inhibitory Activity and Molecular Docking” (International Journal of Molecular Sciences, 2023).
Where two headings read alike, the source gives them in different places.

Legend:
AChE = settings: cited from earlier work
BACE1 [1] = settings: cited from earlier work
BuChE = settings: cited from earlier work
[2] = target: T1, AChE from Electrophorus electricus (electric eel) (Electrophorus electricus, UniProt O42275); assay: biochemical; settings: mean ± SD of three independent experiments
T1 construct: purchased Sigma-Aldrich C3389

BACE1 [3] = target: T2, BACE1 (Homo sapiens, UniProt P56817); assay: In vitro β-secretase (BACE1) activity assay kit (fluorescence); type: biochemical, equine
T2 construct: purchased Sigma-Aldrich CS0010

human AChE = settings: cited from earlier work
BACE-1 = settings: cited from earlier work
hBuChE = target: hBuChE; set-up: method as in PMID 23041347; settings: cited from earlier work

T2 sequence (P56817 46-457 limits assumed): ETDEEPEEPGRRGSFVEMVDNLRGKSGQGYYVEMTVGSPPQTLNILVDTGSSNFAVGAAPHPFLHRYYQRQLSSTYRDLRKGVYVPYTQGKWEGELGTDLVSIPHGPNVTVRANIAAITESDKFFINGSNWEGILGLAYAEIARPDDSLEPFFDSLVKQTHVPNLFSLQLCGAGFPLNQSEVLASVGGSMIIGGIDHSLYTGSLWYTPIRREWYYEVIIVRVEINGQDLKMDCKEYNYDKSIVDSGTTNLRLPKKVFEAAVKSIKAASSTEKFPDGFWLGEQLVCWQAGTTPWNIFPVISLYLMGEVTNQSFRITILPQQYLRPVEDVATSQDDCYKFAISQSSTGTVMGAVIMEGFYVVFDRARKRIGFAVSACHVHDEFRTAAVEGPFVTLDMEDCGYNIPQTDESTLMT
T1 sequence (O42275 24-633): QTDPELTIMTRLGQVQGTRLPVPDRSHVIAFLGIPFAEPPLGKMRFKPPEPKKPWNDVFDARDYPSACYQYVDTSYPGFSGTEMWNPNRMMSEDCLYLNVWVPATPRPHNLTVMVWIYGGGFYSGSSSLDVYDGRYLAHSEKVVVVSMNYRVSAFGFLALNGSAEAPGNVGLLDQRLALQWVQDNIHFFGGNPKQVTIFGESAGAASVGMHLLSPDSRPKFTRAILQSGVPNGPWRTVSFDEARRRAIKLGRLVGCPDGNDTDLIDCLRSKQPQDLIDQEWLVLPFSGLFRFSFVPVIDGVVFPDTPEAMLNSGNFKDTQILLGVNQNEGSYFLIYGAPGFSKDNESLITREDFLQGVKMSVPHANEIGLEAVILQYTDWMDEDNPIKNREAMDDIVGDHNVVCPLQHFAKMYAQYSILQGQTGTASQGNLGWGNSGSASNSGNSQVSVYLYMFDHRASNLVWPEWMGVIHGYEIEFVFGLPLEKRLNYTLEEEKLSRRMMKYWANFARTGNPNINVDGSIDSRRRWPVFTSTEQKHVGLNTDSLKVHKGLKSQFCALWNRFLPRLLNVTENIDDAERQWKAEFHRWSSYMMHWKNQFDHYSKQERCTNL

CN(C)CCOc1ccc(NC(=O)c2ccccn2)cc1 [Compound V]
IC50 (AChE; read-out: AChE inhibitory activity IC50): 2490 ± 190 nM

C[C@@H](NC(=O)c1cccc(C(=O)N[C@@H](c2ccccc2)[C@H](O)CNCCC2CCN(Cc3ccccc3)CC2)c1)c1ccccc1 [Derivative VII]
IC50 (BACE1 [1]): 570 nM
IC50 (AChE; read-out: AChE IC50): 1830 nM

CCN(CC)Cc1ccccc1CNC(=O)c1cccc(CC(=O)c2ccc(F)cc2)c1 [III]
IC50 (BuChE; read-out: BChE IC50): 0.08 nM

CCN(CC)Cc1ccccc1CNC(=O)c1cc(C)cc(CC(=O)c2ccc(F)cc2)c1 [IV]
IC50 (BuChE; read-out: BChE IC50): 0.039 nM

COc1cc(C(=O)Nc2cccc(NC(=O)c3cc(OC)c(OC)c(OC)c3)c2)cc(OC)c1OC [JW1, N,N′-(1,3-phenylene)bis(3,4,5-trimethoxybenzamide)]
IC50 [2]: 770 ± 18 nM
IC50 (BACE1 [3]): 54400 ± 1300 nM

COc1cc(OC)cc(C(=O)Nc2cccc(NC(=O)c3cc(OC)cc(OC)c3)c2)c1 [JW2, N,N′-(1,3-phenylene)bis(3,5-dimethoxybenzamide)]
IC50 [2]: 2570 ± 63 nM
IC50 (BACE1 [3]): 74000 ± 1610 nM

COc1ccc(C(=O)Nc2cccc(NC(=O)c3ccc(OC)c(OC)c3)c2)cc1OC [JW3, N,N′-(1,3-phenylene)bis(3,4-dimethoxybenzamide)]
IC50 [2]: 410 ± 28 nM
IC50 (BACE1 [3]): 40200 ± 8120 nM

COc1cccc(C(=O)Nc2cccc(NC(=O)c3cccc(OC)c3)c2)c1 [JW4, N,N′-(1,3-phenylene)bis(3-methoxybenzamide)]
IC50 [2]: 1200 ± 13 nM
IC50 (BACE1 [3]): 81400 ± 4110 nM

COc1cc(C(=O)Nc2ccc(NC(=O)c3cc(OC)c(OC)c(OC)c3)cc2)cc(OC)c1OC [JW5, N,N′-(1,4-phenylene)bis(3,4,5-trimethoxybenzamide)]
IC50 [2]: 68 ± 58 nM
IC50 (BACE1 [3]): 9290 ± 3020 nM

COc1cc(OC)cc(C(=O)Nc2ccc(NC(=O)c3cc(OC)cc(OC)c3)cc2)c1 [JW6, N,N′-(1,4-phenylene)bis(3,5-dimethoxybenzamide)]
IC50 [2]: 190 ± 33 nM
IC50 (BACE1 [3]): 16700 ± 250 nM

COc1ccc(C(=O)Nc2ccc(NC(=O)c3ccc(OC)c(OC)c3)cc2)cc1OC [JW7, N,N′-(1,4-phenylene)bis(3,4-dimethoxybenzamide)]
IC50 [2]: 70 ± 3 nM
IC50 (BACE1 [3]): 12800 ± 230 nM

COc1cccc(C(=O)Nc2ccc(NC(=O)c3cccc(OC)c3)cc2)c1 [JW8, N,N′-(1,4-phenylene)bis(3-methoxybenzamide)]
IC50 [2]: 56 ± 43 nM
IC50 (BACE1 [3]): 9010 ± 280 nM

COc1cc(C(=O)Nc2cccc([N+](=O)[O-])c2)cc(OC)c1OC [MB1, 3,4,5-trimethoxy-N-(3-nitrophenyl)benzamide]
IC50 [2]: 670 ± 8 nM
IC50 (BACE1 [3]): 40500 ± 2200 nM

COc1cc(NC(=O)c2cc(OC)c(OC)c(OC)c2)cc(OC)c1OC [MB3, 3,4,5-trimethoxy-N-(3,4,5-trimethoxyphenyl)benzamide]
IC50 [2]: 110 ± 78 nM
IC50 (BACE1 [3]): 20200 ± 5130 nM

COc1cc(CNC(=O)c2cc(OC)c(OC)c(OC)c2)cc(OC)c1OC [MB4, 3,4,5-trimethoxy-N-(3,4,5-trimethoxybenzyl)benzamide]
IC50 [2]: 1170 ± 15 nM
IC50 (BACE1 [3]): 87700 ± 6220 nM

O=C(NCCCCCCCCCCNc1c2c(nc3ccccc13)CCCC2)c1cc(=O)c2cc(O)ccc2o1 [Molecule VIII]
IC50 (human AChE; human AChE, read-out: IC50 for AChE): 8 nM
IC50 (BACE-1; read-out: IC50 for BACE-1): 2800 nM

OC(CNCc1cccc(COc2ccccc2)c1)Cn1cc(Br)c2cc(Br)ccc21 (centres unmarked) [compound IX]
IC50 (BACE1 [1]; read-out: BACE-1 IC50): 2500 nM
IC50 (AChE; read-out: AChE IC50): 9100 nM

COc1ccc(C(=O)N(Cc2ccc(Cl)cc2)c2cccc(Br)c2)cc1OC [compound I]
IC50 (BuChE; read-out: BuChE IC50): 2850 nM
IC50 (AChE; read-out: AChE IC50): 1570 nM

O=C(NCc1cc(Cl)cc(Cl)c1)c1cc(Br)ccc1O [compound VI]
IC50 (AChE; read-out: inhibitory potency of AChE activity): 33100 ± 470 nM

CC(=O)c1ccccc1NC(=O)c1ccc(OCCCCC[n+]2ccccc2)cc1 [compound XI]
Ki (human AChE; read-out: hAChE Ki): 81 nM
IC50 (BACE1 [1]): 310 nM
Ki (hBuChE): 93 nM

COc1ccc(CNC(=O)C2CCN(C(=O)c3ccccc3)CC2)cc1OC [compound X]
IC50 (human AChE; in humans, read-out: AChE IC50): 4.11 nM
IC50 (BACE-1; in humans, read-out: BACE-1 IC50): 18.3 nM

COc1ccc(C(=O)Nc2nc(CN(C)Cc3ccccc3)cs2)cc1 [substance II]
IC50 (BuChE; read-out: BuChE IC50): 11400 nM
IC50 (AChE; read-out: AChE IC50): 1470 nM
